Test results reported in US12371428B2 (Exelixis, Inc., priority 2019, dated 2025).
Structures can show the parent of a compound that is named as a salt.

Columns and labels:
[1] = target: Met (phospho-Met, HGF-stimulated PC-3 prostate cancer cells) (Homo sapiens (Human), UniProt P08581); test: Met autophosphorylation ELISA in PC-3 cells (Example F); assay type: cell-based; details: cellular activity; Met autophosphorylation ELISA in PC-3 cells; read-out: c-Met IC50
Procedure, shortened: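 IC50 values derive from a 4-parameter logistic fit of phospho-Met (panTyr) sandwich ELISA signals in PC-3 lysates, scaled between DMSO and reference-inhibitor wells. Cells, starved 3 h in serum-free medium, had 1 h compound exposure (8 doses, 0.3% DMSO) before 10 min stimulation with 100 ng/mL HGF.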

[2] = target: KDR (phospho-KDR, VEGF165-stimulated HUVEC cells) (Homo sapiens (Human), UniProt P35968); test: KDR autophosphorylation ELISA in HUVEC cells (Example G); assay type: cell-based; details: cellular activity; KDR autophosphorylation ELISA in HUVEC cells
Procedure, shortened: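 Inhibition of VEGF165-driven KDR autophosphorylation is measured in primary human umbilical vein endothelial cells after 24 h serum deprivation. Compound preincubation lasts 1 h before a 5-minute challenge with 100 ng/mL ligand, and phosphorylated receptor is then measured by ELISA in the lysates.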

Sequence of Met (phospho-Met, HGF-stimulated PC-3 prostate cancer cells) (P08581 25-1390): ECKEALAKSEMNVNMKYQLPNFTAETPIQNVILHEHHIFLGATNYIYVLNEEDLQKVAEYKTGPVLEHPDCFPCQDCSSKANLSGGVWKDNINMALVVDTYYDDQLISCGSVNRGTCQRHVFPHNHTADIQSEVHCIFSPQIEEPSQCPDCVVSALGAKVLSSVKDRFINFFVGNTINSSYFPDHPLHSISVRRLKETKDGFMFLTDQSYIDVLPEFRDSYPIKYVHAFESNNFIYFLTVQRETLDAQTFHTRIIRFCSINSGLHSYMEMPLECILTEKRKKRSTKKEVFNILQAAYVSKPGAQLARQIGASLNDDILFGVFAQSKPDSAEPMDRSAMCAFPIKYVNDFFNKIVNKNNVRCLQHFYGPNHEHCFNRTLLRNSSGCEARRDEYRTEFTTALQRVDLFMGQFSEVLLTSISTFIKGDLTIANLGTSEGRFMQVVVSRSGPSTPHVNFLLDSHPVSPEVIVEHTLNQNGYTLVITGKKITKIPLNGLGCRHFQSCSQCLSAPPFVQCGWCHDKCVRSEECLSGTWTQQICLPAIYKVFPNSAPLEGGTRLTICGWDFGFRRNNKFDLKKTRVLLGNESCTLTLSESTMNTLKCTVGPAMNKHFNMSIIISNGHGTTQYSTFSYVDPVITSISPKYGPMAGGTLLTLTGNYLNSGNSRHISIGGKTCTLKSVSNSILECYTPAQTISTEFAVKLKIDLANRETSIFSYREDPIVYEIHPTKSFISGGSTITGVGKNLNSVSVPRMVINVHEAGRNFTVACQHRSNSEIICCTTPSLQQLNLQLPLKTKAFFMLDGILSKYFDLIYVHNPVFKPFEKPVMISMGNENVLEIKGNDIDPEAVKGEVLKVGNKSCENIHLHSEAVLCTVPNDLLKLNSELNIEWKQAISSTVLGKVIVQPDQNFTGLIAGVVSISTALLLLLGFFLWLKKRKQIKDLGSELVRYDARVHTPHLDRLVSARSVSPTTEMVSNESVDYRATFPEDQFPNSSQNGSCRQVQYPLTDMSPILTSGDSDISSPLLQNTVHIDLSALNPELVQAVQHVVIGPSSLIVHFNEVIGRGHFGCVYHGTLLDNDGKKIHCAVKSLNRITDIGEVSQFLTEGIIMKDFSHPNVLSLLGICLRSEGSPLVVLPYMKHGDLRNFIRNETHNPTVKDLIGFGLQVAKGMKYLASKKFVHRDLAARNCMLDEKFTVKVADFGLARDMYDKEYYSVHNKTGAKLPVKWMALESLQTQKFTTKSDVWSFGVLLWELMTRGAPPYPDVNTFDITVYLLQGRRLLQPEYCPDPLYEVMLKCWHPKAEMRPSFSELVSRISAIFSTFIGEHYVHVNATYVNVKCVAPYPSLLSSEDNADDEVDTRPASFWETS
Sequence of KDR (phospho-KDR, VEGF165-stimulated HUVEC cells) (P35968 20-1356): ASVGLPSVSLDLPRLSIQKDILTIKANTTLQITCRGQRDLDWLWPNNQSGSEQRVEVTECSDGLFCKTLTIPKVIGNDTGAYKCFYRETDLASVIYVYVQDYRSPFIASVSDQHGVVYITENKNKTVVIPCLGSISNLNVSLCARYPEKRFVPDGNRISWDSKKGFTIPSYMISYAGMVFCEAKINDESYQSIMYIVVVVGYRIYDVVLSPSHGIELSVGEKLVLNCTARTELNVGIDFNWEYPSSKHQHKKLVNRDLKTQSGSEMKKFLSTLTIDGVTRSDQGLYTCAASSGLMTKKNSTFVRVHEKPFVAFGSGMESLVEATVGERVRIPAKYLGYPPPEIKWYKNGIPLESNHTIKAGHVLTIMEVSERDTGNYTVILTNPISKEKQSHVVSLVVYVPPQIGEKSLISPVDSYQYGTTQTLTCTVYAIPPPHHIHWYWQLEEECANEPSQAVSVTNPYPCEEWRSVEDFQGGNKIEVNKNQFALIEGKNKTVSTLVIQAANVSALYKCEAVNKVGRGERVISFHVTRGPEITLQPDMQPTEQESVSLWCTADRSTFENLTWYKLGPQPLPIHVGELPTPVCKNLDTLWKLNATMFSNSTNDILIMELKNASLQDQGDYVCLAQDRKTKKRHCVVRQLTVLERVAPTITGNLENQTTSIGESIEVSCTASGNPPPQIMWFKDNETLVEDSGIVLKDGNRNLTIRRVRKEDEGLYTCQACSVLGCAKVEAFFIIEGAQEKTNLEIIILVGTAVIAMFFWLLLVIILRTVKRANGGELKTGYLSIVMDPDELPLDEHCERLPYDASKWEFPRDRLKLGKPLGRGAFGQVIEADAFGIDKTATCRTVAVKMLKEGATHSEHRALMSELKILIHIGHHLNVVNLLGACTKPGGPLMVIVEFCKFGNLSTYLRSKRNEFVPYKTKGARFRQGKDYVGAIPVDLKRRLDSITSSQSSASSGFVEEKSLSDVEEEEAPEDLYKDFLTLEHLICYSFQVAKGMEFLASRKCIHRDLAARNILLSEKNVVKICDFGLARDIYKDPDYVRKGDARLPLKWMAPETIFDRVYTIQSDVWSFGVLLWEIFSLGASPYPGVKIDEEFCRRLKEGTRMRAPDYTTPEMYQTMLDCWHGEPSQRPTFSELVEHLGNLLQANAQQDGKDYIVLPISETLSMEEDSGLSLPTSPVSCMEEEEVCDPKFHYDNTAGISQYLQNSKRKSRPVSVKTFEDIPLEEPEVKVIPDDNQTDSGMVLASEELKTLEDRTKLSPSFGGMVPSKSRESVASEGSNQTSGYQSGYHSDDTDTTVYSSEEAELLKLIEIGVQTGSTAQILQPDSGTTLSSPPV

IC50 [1] [µM] | IC50 [2] [µM] | Compound
< 0.1 | < 0.1 | CCc1nc(C)c(-c2ccc(F)cc2)c(O)c1C(=O)Nc1ccc(Oc2ccnc3cc(OC)c(OC)nc23)c(F)c1 [Compound 179, N-[4-[(6,7-Dimethoxy-1,5-naphthyridin-4-yl)oxy]-3-fluorophenyl]-2-ethyl-5-(4-fluorophenyl)-4-hydroxy-6-methylpyridine-3-carboxamide]
< 0.1 | < 0.1 | COc1ccc2nccc(Oc3ccc(NC(=O)c4cnc(CO)c(-c5ccc(F)cc5)c4O)cc3F)c2n1 [Compound 231, N-[3-Fluoro-4-[(6-methoxy-1,5-naphthyridin-4-yl)oxy]phenyl]-5-(4-fluorophenyl)-4-hydroxy-6-(hydroxymethyl)pyridine-3-carboxamide]
< 0.1 | < 0.1 | COCCOc1nc2c(Oc3ccc(NC(=O)c4c(COC)nc(C)c(-c5ccc(F)cc5)c4O)cc3F)ccnc2cc1OC [Compound 199, N-[3-Fluoro-4-[[7-methoxy-6-(2-methoxyethoxy)-1,5-naphthyridin-4-yl]oxy]phenyl]-5-(4-fluorophenyl)-4-hydroxy-2-(methoxymethyl)-6-methylpyridine-3-carboxamide]
< 0.1 | < 0.1 | CCc1nc(C)c(-c2ccc(F)cc2C)c(O)c1C(=O)Nc1ccc(Oc2ccnc3cc(OC)cnc23)c(F)c1 [Compound 204, 2-Ethyl-N-[3-fluoro-4-[(7-methoxy-1,5-naphthyridin-4-yl)oxy]phenyl]-5-(4-fluoro-2-methylphenyl)-4-hydroxy-6-methylpyridine-3-carboxamide]
< 0.1 | < 0.1 | COc1cnc2c(Oc3ccc(NC(=O)c4nnc(C)c(-c5ccc(F)cc5C)c4O)cc3F)ccnc2c1 (single isomer, unassigned) [Compound 249C, N-[3-Fluoro-4-[(7-methoxy-1,5-naphthyridin-4-yl)oxy]phenyl]-5-(4-fluoro-2-methylphenyl)-4-hydroxy-6-methylpyridazine-3-carboxamide]
< 0.1 | < 0.1 | COc1cc2nccc(Oc3ccc(NC(=O)c4cn(C)cc(-c5cccc(F)c5)c4=O)cc3F)c2nc1OC [Compound 35, N-[4-[(6,7-Dimethoxy-1,5-naphthyridin-4-yl)oxy]-3-fluorophenyl]-5-(3-fluorophenyl)-1-methyl-4-oxopyridine-3-carboxamide hydrochloride]
< 0.1 | < 0.1 | COc1cnc2c(Oc3ccc(NC(=O)c4c(C)ncc(-c5ccc(F)cc5)c4O)cc3)ccnc2c1 [Compound 236, 5-(4-Fluorophenyl)-4-hydroxy-N-[4-[(7-methoxy-1,5-naphthyridin-4-yl)oxy]phenyl]-2-methylpyridine-3-carboxamide]
< 0.1 | < 0.1 | COc1cc2nccc(Oc3ccc(NC(=O)c4c(C)ncc(-c5ccc(F)cc5)c4O)cc3)c2nc1OC [Compound 235, N-[4-[(6,7-Dimethoxy-1,5-naphthyridin-4-yl)oxy]phenyl]-5-(4-fluorophenyl)-4-hydroxy-2-methylpyridine-3-carboxamide]
< 0.1 | < 0.1 | COc1cnc2c(Oc3ccc(NC(=O)c4ccc(C)n(-c5ccc(F)cc5)c4=O)cc3)ccnc2c1 [Compound 216, 1-(4-Fluorophenyl)-N-[4-[(7-methoxy-1,5-naphthyridin-4-yl)oxy]phenyl]-6-methyl-2-oxopyridine-3-carboxamide]
< 0.1 | 0.1 to 0.3 | COc1cnc2c(Oc3ccc(NC(=O)c4c(C)nc(C)n(-c5ccc(F)cc5)c4=O)cc3)ccnc2c1 [Compound 258, 1-(4-Fluorophenyl)-N-[4-[(7-methoxy-1,5-naphthyridin-4-yl)oxy]phenyl]-2,4-dimethyl-6-oxopyrimidine-5-carboxamide]
